According to US12565511B2, “SOS1 inhibitor containing phosphorus” (Chia Tai Tianqing Pharmaceutical Group Co., Ltd., priority 2020, dated 2026):

Key:
[1] = molecular target: T1, SOS1cat / KRAS G12C (Homo sapiens, UniProt Q07889); assay: Guanine nucleotide exchange test (HTRF); assay type: biochemical; conditions: SOS1cat-mediated loading of EDA-GTP-DY-647P1 on His-KRAS G12C, 20° C.; read-out: Nucleotide conversion of HTRF IC50
T1 sequence (Q07889 564-1049): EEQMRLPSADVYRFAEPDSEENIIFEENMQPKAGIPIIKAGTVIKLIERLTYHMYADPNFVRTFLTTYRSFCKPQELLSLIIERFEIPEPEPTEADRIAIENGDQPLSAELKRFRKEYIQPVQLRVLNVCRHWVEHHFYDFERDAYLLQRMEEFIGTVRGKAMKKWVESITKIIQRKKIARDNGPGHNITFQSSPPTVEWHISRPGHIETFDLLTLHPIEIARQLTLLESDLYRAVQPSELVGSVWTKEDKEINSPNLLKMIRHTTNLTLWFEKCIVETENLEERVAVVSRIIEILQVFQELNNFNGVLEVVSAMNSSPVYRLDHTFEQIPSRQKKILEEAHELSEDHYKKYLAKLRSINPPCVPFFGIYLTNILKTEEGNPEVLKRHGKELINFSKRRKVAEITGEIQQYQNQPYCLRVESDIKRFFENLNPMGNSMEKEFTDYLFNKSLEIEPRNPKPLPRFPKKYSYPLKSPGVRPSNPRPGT
Procedure: Test Example 2 Guanine Nucleotide Exchange Test
This test quantitatively investigates the ability of SOS to mediate KRAS activation. KRAS G12C with a His tag was added to the system, anti-His antibody labeled with lanthanide Eu was combined with the system, then auxiliary protein SOS1cat and GTP analogue EDA-GTP-DY-647P1 with fluorophore were added thereto, the GTP analogue with fluorophore was loaded on KRAS G12C with the assistance of the auxiliary protein, and then energy resonance transfer occurred between Anti-6HS-Cryptate (FRET donor) and EDA-GTP-DY-647P1 (FRET acceptor).
However, after pretreatment with SOS1 inhibitor compounds, the ability of SOS1 to bind and mediate KRAS activation was weakened, and the ability of FRET between donor and acceptor was weakened.
Test buffer was prepared with the following components: HEPES pH 7.4: 20 mM; NaCl: 150 mM; MgCl2: 0.5 mM; DTT: 2 mM; BSA: 0.05%; and Igepal: 0.0025%.
KRAS G12C working solution, SOS1cat working solution and blank control solution were prepared with the test buffers; wherein the KRAS G12C working solution contained 100 nM His-KRAS G12C and 2 nM […]; the SOS1cat working solution contained 20 nM SOS1cat and 200 nM EDA-GTP-DY-647P1; and the blank control solution contained 100 nM EDA-GTP-DY-647P1.
The whole test procedures were completed at 20° C.

[2] = system: K562 cells; assay: Assay for proliferation inhibitory activity of K562 cells; assay type: cell-based; conditions: Homo sapiens, 72 h, CCK-8, read-out: K562 cell proliferation inhibition IC50
Procedure: Test Example 4 Assay for Proliferation Inhibitory Activity of K562 Cells
The K562 cell line can be purchased from the American Type Culture Collection (ATCC).
The K562 cells in a good growth state were added to a centrifuge tube with the cell density adjusted to 3×10^4/mL, and seeded on a 96-well plate (100 μL/well). The cells were cultured overnight in a cell incubator, the compound was loaded using a nanoliter pipettor to allow the final compound concentration to be 10000 nM to 4.6 nM, 2 replicate wells were set and control was set.

[3] = molecular target: T2, KRAS-G12C/SOS1 (Homo sapiens, UniProt Q07889); assay: biochemical
T2 sequence (Q07889 564-1049): T1 sequence (Q07889 564-1049)

[4] = system: H358 human non-small cell lung cancer cells; assay: Inhibition test of in vitro cell level phosphorylation activity (pERK); assay type: cell-based; conditions: NCI-H358, ERK phosphorylation inhibition, compound 1 h
Procedure: Test Example 1 Inhibition Test of In Vitro Cell Level Phosphorylation Activity
1.2 Test Method for In Vitro Cell Level Phosphorylation Activity
A dish of H358 human non-small cell lung cancer cells (Nanjing Cobioer Biosciences Co., Ltd.) in logarithmic growth phase and good cell condition were added to a centrifuge tube and centrifuged at 1000 rpm for 5 min in a low speed benchtop centrifuge. The supernatant was discarded, and 5 mL of a plating medium containing 5% FBS was added using a pipette for cell resuspension. The cell suspension was loaded on a cell counter for counting, and diluted with the plating medium to adjust the cell density to 1.5×10^5 cells/mL. The cells were seeded on a black clear-bottom 384-well plate at 40 μL/well using a multi-channel pipette, and cultured overnight in a cell incubator at 37° C., 5% CO2 and saturated humidity. […] The medium was discarded after 1 h, 40 μL, of 4% polyoxymethylene was added to each well, and the plate was incubated for 20 min at room temperature and washed with PBS. […] 20 μL of 5% BSA blocking buffer was added to each well, and the blocking buffer was discarded after the plate was blocked for 1 h at room temperature. 20 μL of the primary antibody mixed solution was added to each well, wherein Rabbit anti-pERK was diluted at 1:1000 (final concentration) and mouse anti-GAPDH was diluted at 1:5000 (final concentration), and the plate was incubated overnight at 4° C. and washed with PBST. 20 μL of the secondary antibody mixed solution was added to each well, wherein goat anti rabbit 800 and goat anti mouse 647 were both diluted at 1:1000 (final concentration), and the plate was incubated in the dark at room temperature for 45 min and washed with PBST.

Molecule COc1cc2nc(C)nc(N[C@H](C)c3cc(N)cc(C(F)F)c3)c2cc1P1(=O)CCCCC1 [Example 65] has an IC50 [1] of 482 nM, an IC50 [2] of 433 nM and an IC50 [3] of 56 nM.

COc1cc2nc(C)nc(N[C@H](C)c3cccc(C(F)F)c3C)c2cc1P1(=O)CCN(C(=O)C2CC2)CC1 [Example 14] gave an EC50 [4] of 108 nM.

Cc1nc(N[C@H](C)c2cccc(C(F)F)c2F)c2cc(P3(=O)CCN(S(C)(=O)=O)CC3)ncc2n1 [Example 20] was tested, and the IC50 [1] was 482 nM, the IC50 [2] was 292 nM and the IC50 [3] was 78 nM.

Cc1nc(N[C@H](C)c2cccc(C(F)(F)F)c2F)c2cc(P3(=O)CCCC3)ncc2n1 [Example 43] gave an IC50 [1] of 717 nM, an IC50 [2] of 1070 nM and an IC50 [3] of 215 nM.

With Cc1nc(N[C@H](C)c2cccc(C(F)F)c2F)c2cc(P3(=O)CCN(S(C)(=O)=O)CC3)ccc2n1 [Example 27] the IC50 [1] was 542 nM, the IC50 [2] was 469 nM and the IC50 [3] was 61 nM.

For COc1cc2nc(C)nc(N[C@H](C)c3cccc(C(C)(F)F)c3F)c2cc1P1(=O)CCN(C(C)=O)CC1 [Example 15], the EC50 [4] was 148 nM.

Work on Cc1nc(N[C@H](C)c2cccc(C(F)F)c2F)c2cc(P3(=O)CCN(S(=O)(=O)C4CC4)CC3)ncc2n1 [Example 21] yielded an IC50 [1] of 481 nM, an IC50 [2] of 187 nM and an IC50 [3] of 58 nM.

Molecule [2H]C([2H])([2H])Oc1cc2nc(C)nc(N[C@H](C)c3cc(N)cc(C(F)(F)F)c3)c2cc1P(C)(C)=O [Example 47] has an IC50 [1] of 573 nM and an IC50 [2] of 440 nM.

Work on Cc1nc(N[C@H](C)c2cccc(C(F)(F)F)c2F)c2cc(P3(=O)CCCCC3)ncc2n1 [Example 42] yielded an IC50 [1] of 572 nM, an IC50 [2] of 562 nM and an IC50 [3] of 81 nM.

For COc1cc2nc(C)nc(N[C@H](C)c3cc(N)cc(C(F)(F)F)c3C)c2cc1P1(=O)CCN(C(C)=O)CC1 [Example 18], the EC50 [4] was 71 nM.

In the case of COc1cc2nc(C)nc(N[C@H](C)c3cccc(C(C)(F)F)c3F)c2cc1P1(=O)CCN(C(=O)C2CC2)CC1 [Example 17], the EC50 [4] is reported as 82 nM.

Molecule Cc1nc(N[C@H](C)c2cc(N)cc(C(F)(F)F)c2)c2cc(P(C)(C)=O)c(OC(F)F)cc2n1 [Example 45] has an IC50 [1] of 694 nM and an IC50 [2] of 1080 nM.

Work on COc1cc2nc(C)nc(N[C@H](C)c3cccc(C(F)F)c3C)c2cc1P1(=O)CCN(C(C)=O)CC1 [Example 12] yielded an EC50 [4] of 103 nM.

Cc1nc(N[C@H](C)c2cc(N)cc(C(F)(F)F)c2)c2cc(P(C)(C)=O)c(OCF)cc2n1 [Example 46] showed an IC50 [1] of 498 nM and an IC50 [2] of 491 nM.
